Legend:
Assay type in all cases: in vivo
Kochia scoparia (KCHSC) = test: Post-emergence action against weeds, greenhouse pot test, visual rating: Kochia scoparia; conditions: Bassia scoparia, post-emergence, 504 h; 1 g a.i./ha; read-out: Herbicidal effect [%] on KCHSC 21 DAT
Avena fatua (AVEFA) = test: Post-emergence action against weeds, greenhouse pot test, visual rating: Avena fatua; conditions: 1 g a.i./ha
[1] = system: Sorghum halepense (SORHA); test: Post-emergence action against weeds, greenhouse pot test, visual rating: Sorghum halepense; conditions: 1 g a.i./ha, 21 DAT
Description: When the observed efficacies already exceed the formal sum total of the values of the tests with individual applications, they also exceed the expected value according to Colby, which is calculated using the formula below and is likewise regarded as an indication of synergism (cf. S. R. Colby; in Weeds 15 (1967) pp. 20 to 22):
where: • A=efficacy of the active ingredient (A) in % at an application rate of a [g a.i./ha]; • B=efficacy of the active ingredient (B) in % at an application rate of b [g a.i./ha]; • E^C=expected value of the effect of the combination (A)+(B) in % at the combined application rate a+b [g a.i./ha].
The observed values (E^A) from the experiments, given suitable low dosages, show an effect of the combinations exceeding the expected values according to Colby (E^C) (Δ).
Seeds of mono- and dicotyledonous weeds were placed in sandy loam in pots, covered with soil and grown in a greenhouse under good growth conditions (temperature, air humidity, water supply). Two to three weeks after sowing, the test plants were treated at the two- to four-leaf stage with the compositions of the invention. The compositions of the invention, formulated as spray powders or as emulsion concentrates, were sprayed onto the green parts of the plant in various dosages with an application rate equivalent to […] of water. After the test plants had been kept in the greenhouse under optimum growth conditions for 3 weeks, the activity of the preparations was rated visually in comparison to untreated controls.
100% efficacy means complete control of the particular weed tested.
0% efficacy means zero control of the particular weed tested.
Expected values according to Colby are reported under E.
The exceedance of the expected value E is given as Δ (=synergistic effect).
The rating period is reported in days after application (DAT).

[2] = system: Echinochloa crus-galli (ECHCG); test: Post-emergence action against weeds, greenhouse pot test, visual rating: Echinochloa crus-galli; conditions: 1 g a.i./ha
Bidens pilosa (BIDPI) = test: Post-emergence action against weeds, greenhouse pot test, visual rating: Bidens pilosa; conditions: 1 g a.i./ha
Centaurea cyanus (CENCY) = test: Post-emergence action against weeds, greenhouse pot test, visual rating: Centaurea cyanus; conditions: 240 h, 1 g a.i./ha, read-out: Herbicidal effect [%] on CENCY 10 DAT

COc1cc(OC)nc(NC(=O)NS(=O)(=O)c2cc(NC=O)ccc2C(=O)N(C)C)n1 [Foramsulfuron, foramsulfuron]
pest or weed control at 1 g/ha (Kochia scoparia (KCHSC)): 20%
Herbicidal effect [%] on AVEFA 21 DAT (Avena fatua (AVEFA); 21 DAT): 70%
pest or weed control at 1 g/ha (Avena fatua (AVEFA); Avena fatua, 240 h, 10 DAT, read-out: Herbicidal effect [%] on AVEFA 10 DAT): 60%
Herbicidal effect [%] on SORHA 21 DAT [1]: 20%
Herbicidal effect [%] on ECHCG 10 DAT [2]: 70%
Herbicidal effect [%] on BIDPI 10 DAT (Bidens pilosa (BIDPI)): 20%
Herbicidal effect [%] on BIDPI 21 DAT (Bidens pilosa (BIDPI)): 30%
pest or weed control at 1 g/ha (Centaurea cyanus (CENCY)): 30%
